Measured values from US20130156845A1, “LIPID FORMULATED SINGLE STRANDED RNA” (ALNYLAM PHARMACEUTICALS, INC., priority 2010, published 2013).
Read-outs that look alike come from different tables or passages of the source. Strand notation (5' to 3'): a small letter for the sugar, then the base; units joined by * are phosphorothioate-linked, units joined directly phosphodiester-linked; [ ] holds rarer units or linkages, { } end groups; capitals alone tell only the bases. [Rc] = thymidine, 2',5'-bis modified nucleoside Rc; e = 2'-O-(2-methoxyethyl) (MOE); m = 2'-O-methyl; {P} = phosphate; f = 2'-fluoro

How the values were obtained:
A549 cells = experiment: MicroRNA mimics: cell cycle assay; assay type: cell-based; settings: RNAIMAX transfection, 0.1-100 nM, nocodazole, propidium iodide flow cytometry
Experimental: A cell cycle assay was used to evaluate the activity of microRNA mimics. A549 cells were plated at a density of approximately 45,000 cells per well of a 24-well plate. The following day, cells were transfected with microRNA mimics and control oligomeric compounds, using RNAIMAX as the transfection reagent. Oligomeric compounds were tested at concentrations ranging from 0.1 nM to 100 nM. Control oligomeric compounds were also tested. Approximately 24 hours following transfection, nocodazole was added to the cells at a concentration ranging from 0.5 to 2.0 μg/ml. Approximately 16 hours later, the cells were harvested, washed, ethanol-fixed and stained with propidium iodide. Cells cycle profiles were generated by subjecting the stained cells to flow cytometry (FACSCAN).

[1] = tested on: miR-34 seed-matched nucleic acids; experiment: Microarray analysis of gene expression changes after miR-34 mimics; assay type: cell-based; settings: microarray analysis of cells treated with miR-34 mimics
Source text: In addition to measuring cell cycle progression, cells treated with miR-34 mimics were subjected to microarray analysis to compare the profile of gene expression changes following treatment with microRNA mimics.

PTEN [2] = experiment: PTEN mRNA reduction in HeLa cells, dose response (Example 69); assay type: cell-based, human; settings: percent inhibition of PTEN mRNA, 0.067-50 nM
Experimental: In accordance with the present disclosure, oligomeric compounds were synthesized and tested for their ability to reduce PTEN expression over a range of doses. Human HeLa cells were treated with either ISIS 447581, 467074, 418046 or 467076. A dose comparison was evaluated with dose concentrations of 0.067, 0.2, 0.62, 1.9, 5.5, 16.7 and 50 nM using methods described herein. Expression levels of PTEN were determined using real-time PCR and normalized to RIBOGREEN™ using methods described herein. The percent inhibition of PTEN mRNA was determined and the resulting dose-response curves were used to determine the EC50. The EC50s are listed below.

PTEN [3] = experiment: PTEN mRNA reduction in HeLa cells, dose response (Example 59); assay type: cell-based, human; settings: percent inhibition of PTEN mRNA, real-time PCR normalized to RIBOGREEN, 0.20-50 nM
Experimental: When cells reached 65-75% confluency, they are treated with one or more oligomeric compounds. The oligomeric compound is mixed with LIPOFECTIN™ Invitrogen Life Technologies, Carlsbad, Calif.) in Opti-MEM™-1 reduced serum medium (Invitrogen Life Technologies, Carlsbad, Calif.) to achieve the desired concentration of the oligomeric compound(s) and a LIPOFECTIN™ concentration of 2.5 or 3 μg/mL per 100 nM oligomeric compound(s). This transfection mixture is incubated at room temperature for approximately 0.5 hours. For cells grown in 96-well plates, wells are washed once with 100 μL OPTI-MEM™-1 and then treated with 130 μL of the transfection mixture. Cells grown in 24-well plates or other standard tissue culture plates are treated similarly, using appropriate volumes of medium and oligomeric compound(s). […]
Quantitation of target mRNA levels is accomplished by real-time quantitative PCR using the ABI PRISM™ 7600, 7700, or 7900 Sequence Detection System (PE-Applied Biosystems, Foster City, Calif.) according to manufacturer's instructions. This is a closed-tube, non-gel-based, fluorescence detection system which allows high-throughput quantitation of polymerase chain reaction (PCR) products in real-time. As opposed to standard PCR in which amplification products are quantitated after the PCR is completed, products in real-time quantitative PCR are quantitated as they accumulate. […]

human PTEN = experiment: PTEN expression in HeLa cells, ssRNAs vs siRNAs (Example 62); assay type: cell-based
Procedure, shortened: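 HeLa cells treated with antisense strands either as single-stranded RNAs or duplexed with a common sense strand. PTEN mRNA levels normalized; IC50 from linear regression of normalized mRNA against log concentration.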

[4] = mouse, serum
Experimental: Single-stranded oligomeric compounds were tested for stability in mouse serum.

Q: For “P-UmGfGfCfAfGfUfGfUmCmUfUfAmGmCfUfGfGfUfUfGfUfAeAe ({P}-mUfGfGfCfAfGfUfGmUmCfUfUmAmGfCfUfG*fG*fU*fU*fG*fU*eA*eA) [ss miR-34]”, which cell cycle phenotype (A549 cells) is on record?
A: Its cell cycle phenotype is “blocking cells in the G1 phase of the cell cycle”.

Q: And the “effect on miR-34 seed-matched nucleic acids” value [1]?
A: The value was “down-regulated miR-34 seed-matched nucleic acids”.

Q: With “P-TRcUfGmUfCmUfCmUfGmGfUmCfCmUfUmAfCmUfUmAeAe (antisense TUGUCUCUGGUCCUUACUUAA; sugars from the 5' end [Rc]fmfmfmfmfmfmfmfmfmee, 5' {P}, backbone not given here) [ISIS 447581, modified ssRNA targeting PTEN]” as the substance, how does the EC50 (PTEN [2]) read?
A: The EC50 was 600 pM.

Q: What about the EC50 (PTEN [3]) of the same substance?
A: Its EC50 is 870 pM.

Q: And the EC50 (human PTEN; antisense strand duplexed with sense strand ISIS 341401, PTEN mRNA, read-out: EC50 (nM) siRNA)?
A: Its EC50 is 0.4 nM.

Q: What about the EC50 (human PTEN; single stranded antisense compound, PTEN mRNA, read-out: EC50 (nM) ssRNA) of the same substance?
A: The EC50 was 1 nM.

Q: Which T1/2 full length [4] does the source give for “5′-Ps-UdUfoGfoUfoCfoUfoCfoUfoGfoGfoUfoCfoCfoUfsUfsAfsCfsUfsUfsAesAe [ISIS 435395]” here?
A: The T1/2 full length was 7.8 h.
